These results are taken from patent EP4570800A1, “CRYSTAL FORM OF PYRIDINOPYRIMIDINONE COMPOUND, ACID SALT THEREOF, CRYSTAL FORM OF ACID SALT THEREOF, AND USE” (Wuhan Humanwell Innovative Drug Research and Development …, priority 2022, dated 2024).

Like-named read-outs stand apart in the source and are kept apart here.

Data set [1] in a line: Plasma protein binding rate by equilibrium dialysis. It is filed as in vitro ADME. The following applies: compound 1 µM, equilibrium dialysis 37°C. The procedure: Plasma protein binding rate of compounds was detected by equilibrium dialysis (HTDialysis, HTD 96b). The compound was prepared into a […] stock solution with DMSO, and then 25-fold diluted with 0.05 M sodium phosphate buffer as a working solution. A blank 96-well plate was taken and preloaded with 380 µL of plasma per well. The plasma was then added with the working solution at 20 µL/well and mixed well, with the compound at a final concentration of 1 µM, containing 0.2% DMSO per well.
100 µL of 0.05 M sodium phosphate buffer was added to the receiver-side of each dialysis chamber (HTD 96b), and then 100 µL of plasma containing the compound was added to the supply-side. The dialysis chamber was covered with a plastic lid, shaken, and incubated at 37°C for 5 h.
After incubation, 25 µL of sample was taken from each of the supply-side and the receiver-side of the dialysis chamber, and placed in the blank 96-well plate. An equal volume of plasma was added to each of the supply-side samples while an equal volume of 0.05 M sodium phosphate buffer was added to each of the receiver-side samples, and mixed well. […]
Plasma protein binding rate and free fraction were calculated using the following formulas: % binding rate = 100 × ([supply-side concentration]5h - [receiver-side concentration]5h)/[supply-side concentration]5h. % free fraction = 100 - % binding rate

Another data set relates to H358 cells. As to the kind of experiment: Inhibition of 3D cell proliferation (3D CellTiter-Glo). It is filed as cell-based. How it is done:
H358 cells were seeded in a T75 culture flask, and cultured in a RPMI 1640 medium containing 10% FBS for 2 days for subsequent experiments in which the cells would be cultured or seeded on a 384-well plate.
On day 1, the cells were seeded on the 384-well plate, with 40 µL of medium added per well and serially diluted compounds or DMSO added per well, and an additional well without seeded cells but with medium was set up as a blank control. After culture at 37°C, 5% CO2 for 7 days, the plate was added with 3D CellTiter-Glo reagent (Promega, Cat. No. G9683) on day 8, shaken at 320 rpm for 20 min, and left at room temperature for 2 h. Luminescence signals were read on a multifunctional microplate reader. Cell viability inhibition rate was calculated as: [formula]
IC50 values were calculated using Graphpad 5 software.

On to `Cc1nc(N[C@H](C)c2cccc(S(F)(F)(F)(F)F)c2)c2cn(C3(CF)CC3)c(=O)cc2n1` [Compound of formula I, (R)-6-(1-(fluoromethyl)cyclopropyl)-2-methyl-4-((1-(3-(pentafluorosulfanyl)phenyl)ethyl)amino)pyrido[4,3-d]pyrimidin-7(6H)-one], for which the fraction unbound at 5 h, 1 µM in data set [1] (human plasma, read-out: free fraction in plasma, Human (%)) came to 0.017; in data set [1] (mouse plasma, read-out: free fraction in plasma, Mouse (%)), 0.011. This molecule also gave an IC50 in the data set with H358 cells (Homo sapiens, NCI-H358, 168 h, 3D cell proliferation in H358 cells, 7 days culture, 3D CellTiter-Glo) of 11.5 nM. Also, the “inhibitory effect on the 3D proliferation of H358 cells” value in the data set with H358 cells (summary statement) is recorded as “strong inhibitory effect”.
